Where “and” joins values, the source holds several entries; their conditions need not be identical. Identical values can stand only once.
Experiments:
[1] = molecular target: Glycogen synthase kinase-3 alpha (Homo sapiens, UniProt P49840); assay: TR-FRET Assay
Outline: (§1)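 Signal is measured as TR-FRET between a terbium anti-phospho-Ser641 antibody and streptavidin-d2, added after an EDTA quench. Compounds are preincubated 30 min in assay buffer.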

[2] = molecular target: Glycogen synthase kinase-3 beta (Homo sapiens, UniProt P49841); assay: TR-FRET Assay
Outline: as §1

Glycogen synthase kinase-3 beta, sequence (P49841 whole entry): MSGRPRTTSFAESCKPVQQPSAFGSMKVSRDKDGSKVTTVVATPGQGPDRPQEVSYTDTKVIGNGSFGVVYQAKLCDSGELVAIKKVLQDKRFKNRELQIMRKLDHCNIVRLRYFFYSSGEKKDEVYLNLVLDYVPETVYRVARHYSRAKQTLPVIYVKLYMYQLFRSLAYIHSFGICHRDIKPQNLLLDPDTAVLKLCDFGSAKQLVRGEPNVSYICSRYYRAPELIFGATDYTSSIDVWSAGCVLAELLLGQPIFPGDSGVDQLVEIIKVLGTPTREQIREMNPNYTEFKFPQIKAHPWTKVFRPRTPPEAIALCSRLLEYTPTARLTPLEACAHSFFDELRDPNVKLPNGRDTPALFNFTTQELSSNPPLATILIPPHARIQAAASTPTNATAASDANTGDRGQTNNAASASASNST
Glycogen synthase kinase-3 alpha, sequence (P49840 whole entry): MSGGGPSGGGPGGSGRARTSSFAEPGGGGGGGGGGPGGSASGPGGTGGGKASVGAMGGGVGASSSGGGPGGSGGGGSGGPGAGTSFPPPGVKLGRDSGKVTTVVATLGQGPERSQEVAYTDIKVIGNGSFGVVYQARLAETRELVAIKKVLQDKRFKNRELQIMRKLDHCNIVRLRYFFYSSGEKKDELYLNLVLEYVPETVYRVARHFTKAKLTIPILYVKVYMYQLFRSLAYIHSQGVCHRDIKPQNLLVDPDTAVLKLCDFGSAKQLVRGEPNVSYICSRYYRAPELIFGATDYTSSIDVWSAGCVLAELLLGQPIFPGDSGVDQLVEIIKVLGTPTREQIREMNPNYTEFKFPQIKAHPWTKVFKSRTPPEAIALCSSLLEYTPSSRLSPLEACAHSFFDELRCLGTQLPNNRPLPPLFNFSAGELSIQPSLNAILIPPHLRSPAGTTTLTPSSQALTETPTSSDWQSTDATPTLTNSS

Row | Compound | IC50 [1] | IC50 [2]
1 | CC1(C)CC(=O)C2=C(C1)NC1=C(CN=N1)[C@]21CCCOCC1 [US20250313563, Compound 874535] | < 100 nM | < 100 nM
2 | CC[C@@]1(c2cccc(-c3ccn(C)n3)c2)C2=C(CC(C)(C)CC2=O)NC2N=NC(C)=C21 (stereo partly specified) [US20250313563, Compound 913030] | < 100 nM and 100 to 1000 nM | < 100 nM and 100 to 1000 nM
3 | CC[C@]1(c2cccc(-c3cnn(C)c3)c2)C2=CN=NC2NC2=C1C(=O)C[C@@H](C)C2 (stereo partly specified) [US20250313563, Compound 823721] | 100 to 1000 nM | 100 to 1000 nM
4 | CC[C@@]1(c2cccc(N3CCC3(C)C)c2)C2=CN=NC2NC2=C1C(=O)CC(C)(C)C2 (stereo partly specified) [US20250313563, Compound 913141] | 100 to 1000 nM | 1000 to 5000 nM
5 | CCC1(c2cccc(N3CCOc4ccccc43)c2)C2=CN=NC2NC2=C1C(=O)CC(C)(C)C2 (stereo unspecified) [US20250313563, Compound 918280] | < 100 nM | < 100 nM
6 | CC[C@@]1(c2cccc(C3CCOCC3)c2)C2=CN=NC2NC2=C1C(=O)CC(C)(C)C2 (stereo partly specified) [US20250313563, Compound 819639] | 1000 to 5000 nM | > 5000 nM
7 | C[C@H]1COCC[C@]12C1=CN=NC1NC1=C2C(=O)CC(C)(C)C1 (stereo partly specified) [US20250313563, Compound 924309] | 1000 to 5000 nM | > 5000 nM
8 | CC[C@@]1(c2cccc(-c3ccncc3F)c2)C2=CN=NC2NC2=C1C(=O)CC(C)(C)C2 (stereo partly specified) [US20250313563, Compound 943519] | 100 to 1000 nM | 1000 to 5000 nM
9 | CCN(c1cccc(C2(CC)C3=CN=NC3NC3=C2C(=O)CC(C)(C)C3)c1)c1ncccn1 (stereo unspecified) [US20250313563, Compound 919840] | < 100 nM | < 100 nM
10 | CC1(C)CC(=O)C2=C(C1)NC1=C(CN=N1)C21CN(S(=O)(=O)C2CC2)C1 [US20250313563, Compound 913259] | < 100 nM | < 100 nM
11 | CCC1(c2cccc(N(C)c3cccnc3)c2)C2=CN=NC2NC2=C1C(=O)CC(C)(C)C2 (stereo unspecified) [US20250313563, Compound 865168] | < 100 nM | < 100 nM
12 | CC1(C)CC(=O)C2=C(C1)NC1N=NC=C1C21CCCN(CC(F)F)CC1 (stereo unspecified) [US20250313563, Compound 889574] | 100 to 1000 nM | 100 to 1000 nM
13 | CC1(C)CCC2(CC1)C1=C(N=NC1)NC1=C2C(=O)CC(C)(C)C1 [US20250313563, Compound 884107] | < 100 nM | 100 to 1000 nM
14 | CC[C@@]1(c2ccccc2)C2=CN=NC2NC2=C1C(=O)C[C@@H](C(F)(F)F)C2 (stereo partly specified) [US20250313563, Compound 806609] | 100 to 1000 nM | > 1670 nM
15 | CC1(C)CC(=O)C2=C(C1)NC1N=NC(C(F)(F)F)=C1C21CCc2c(F)cccc21 (stereo unspecified) [US20250313563, Compound 801356] | < 100 nM | < 100 nM
16 | CC[C@]1(c2cccc(-c3ccncc3C(F)(F)F)c2)C2=CN=NC2NC2=C1C(=O)CC(C)(C)C2 (stereo partly specified) [US20250313563, Compound 943918] | 100 to 1000 nM | 1000 to 5000 nM
17 | CC[C@]1(c2cccc(Cl)c2)C2=C(CC(C)(C)CC2=O)NC2N=NC(C)=C21 (stereo partly specified) [US20250313563, Compound 790612] | < 100 nM | < 100 nM
18 | CC(C)(C)CC1=C2C(N=N1)NC1=C(C(=O)CC(C)(C)C1)C21CCCc2ccccc21 (stereo unspecified) [US20250313563, Compound 810495] | 100 to 1000 nM | < 100 nM
19 | CC[C@@]1(c2cccc(NS(C)(=O)=O)c2)C2=CN=NC2NC2=C1C(=O)CC(C)(C)C2 (stereo partly specified) [US20250313563, Compound 927348] | < 100 nM | < 100 nM
20 | CCC1(c2cccc(-c3ccnc4c3CCCC4)c2)C2=CN=NC2NC2=C1C(=O)CC(C)(C)C2 (stereo unspecified) [US20250313563, Compound 932625] | < 100 nM | < 100 nM
21 | CCC1(c2cccc(Br)c2)C2=CN=NC2NC2=C1C(=O)CC(C(F)(F)F)C2 (stereo unspecified) [US20250313563, Compound 819565] | 100 to 1000 nM | 100 to 1000 nM
22 | CCC1(c2cccc(-c3cnn4c3CCCC4)c2)C2=CN=NC2NC2=C1C(=O)CC(C)(C)C2 (stereo unspecified) [US20250313563, Compound 926836] | < 100 nM | 100 to 1000 nM
23 | CC[C@@]1(c2cccc(-c3ccnc(N(C)C)c3)c2)C2=C(CC(C)(C)CC2=O)NC2N=NC(C)=C21 (stereo partly specified) [US20250313563, Compound 913021] | < 100 nM | < 100 nM
24 | CC1(C)CC(=O)C2=C(C1)NC1=C(CN=N1)C21CCCc2ccccc21 (stereo unspecified) [US20250313563, Compound 913219] | < 100 nM | 100 to 1000 nM
25 | CCC1(c2cccc(-c3ccnc(OC(F)F)c3)c2)C2=CN=NC2NC2=C1C(=O)CC(C)(C)C2 (stereo unspecified) [US20250313563, Compound 932629] | < 100 nM | 100 to 1000 nM
26 | CCc1cccc(N(C)c2cccc(C3(CC)C4=CN=NC4NC4=C3C(=O)CC(C)(C)C4)c2)n1 (stereo unspecified) [US20250313563, Compound 944023] | < 100 nM | 100 to 1000 nM

Results, then the compound that gave them:

Row | IC50 [1] | IC50 [2] | Compound
27 | 100 to 1000 nM | > 5000 nM | CC[C@@]1(c2cccc(-c3cnn(-c4cccnc4)c3)c2)C2=CN=NC2NC2=C1C(=O)NC(C)(C)C2 (stereo partly specified) [US20250313563, Compound 952024]
28 | < 100 nM | < 100 nM | CCn1ccc(S(=O)(=O)N2CCC3(CC2)C2=C(N=NC2)NC2=C3C(=O)CC(C)(C)C2)n1 [US20250313563, Compound 945671]
29 | 100 to 1000 nM | 100 to 1000 nM | CNC(=O)C1CCC2(CC1)C1=C(N=NC1)NC1=C2C(=O)CC(C)(C)C1 (stereo unspecified) [US20250313563, Compound 945397]
30 | < 100 nM | < 100 nM and 100 to 1000 nM | CCn1nccc1-c1cccc([C@]2(CC)C3=CN=NC3NC3=C2C(=O)CC(C)(C)C3)c1 (stereo partly specified) [US20250313563, Compound 946089]
31 | < 100 nM | 100 to 1000 nM | CC[C@@]1(c2cccc(C(F)(F)F)c2)C2=CN=NC2NC2=C1C(=O)N[C@H](C(C)(C)C)C2 (stereo partly specified) [US20250313563, Compound 945922]
32 | < 100 nM | < 100 nM | Cc1nc(C)c(S(=O)(=O)N2CCC3(CC2)C2=C(N=NC2)NC2=C3C(=O)CC(C)(C)C2)s1 [US20250313563, Compound 947259]
33 | 100 to 1000 nM | 1000 to 5000 nM | CC[C@@]1(c2cccc(-c3ccnc(N4CCOCC4)c3)c2)C2=CN=NC2NC2=C1C(=O)NC(C)(C)C2 (stereo partly specified) [US20250313563, Compound 948825]
34 | 1000 to 5000 nM | > 5000 nM | CC[C@]1(c2cccc(-c3cn(C)nc3C)c2)C2=C(CC(C)(C)NC2=O)NC2N=NC(F)=C21 (stereo partly specified) [US20250313563, Compound 949176]
35 | < 100 nM | 100 to 1000 nM | CC1(C)CC(=O)C2=C(C1)NC1=C(CN=N1)C21CCN(S(=O)(=O)c2cn3c(n2)CCCC3)CC1 [US20250313563, Compound 947472]
36 | < 100 nM | 100 to 1000 nM | CCC1(c2cccc(-c3cnn4c3CCCC4)c2)C2=C(CC(C)(C)NC2=O)NC2N=NC(C)=C21 (stereo unspecified) [US20250313563, Compound 945993]
37 | < 100 nM | < 100 nM and 100 to 1000 nM | CC[C@@]1(c2cccc(-c3cn(C)nc3C)c2)C2=C(CC(C)(C)NC2=O)NC2N=NC(C(F)F)=C21 (stereo partly specified) [US20250313563, Compound 950497]
38 | < 100 nM | < 100 nM | CC1(C)CC(=O)C2=C(C1)NC1=C(CN=N1)C21COC2(CN(C(=O)C(F)(F)F)C2)C1 (stereo unspecified) [US20250313563, Compound 947280]
39 | < 100 nM | 100 to 1000 nM | CC[C@@]1(c2cccc(-c3ccnc4cc(F)cnc34)c2)C2=CN=NC2NC2=C1C(=O)NC(C)(C)C2 (stereo partly specified) [US20250313563, Compound 952758]
40 | < 100 nM | 100 to 1000 nM | Cc1ccc(C)c(S(=O)(=O)N2CCC3(CC2)C2=C(N=NC2)NC2=C3C(=O)CC(C)(C)C2)c1 [US20250313563, Compound 947471]
41 | < 100 nM | < 100 nM | CCC1(c2cccc(Oc3ncccn3)c2)C2=C(CC(C)(C)NC2=O)NC2N=NC(C(F)(F)F)=C21 (stereo unspecified) [US20250313563, Compound 950323]
42 | < 100 nM | 100 to 1000 nM | CCC1(c2cccc(-c3ccnc4c3CCC4)c2)C2=CN=NC2NC2=C1C(=O)NC(C)(C)C2 (stereo unspecified) [US20250313563, Compound 947676]
43 | < 100 nM and 100 to 1000 nM | < 100 nM and 100 to 1000 nM | Cc1ccc(S(=O)(=O)N2CCC3(CC2)C2=C(N=NC2)NC2=C3C(=O)CC(C)(C)C2)s1 [US20250313563, Compound 945672]
44 | 1000 to 5000 nM | > 5000 nM | CC[C@]1(c2cccc(-c3ccnc(C(F)F)c3)c2)C2=CN=NC2NC2=C1C(=O)NC(C)(C)C2 (stereo partly specified) [US20250313563, Compound 949388]
45 | < 100 nM | 100 to 1000 nM | CC[C@@]1(c2cccc(Oc3ncccn3)c2)C2=CN=NC2NC2=C1C(=O)NC(C)(C)C2 (stereo partly specified) [US20250313563, Compound 949330]
46 | < 100 nM and 100 to 1000 nM | < 100 nM and 1000 to 5000 nM | CC[C@@]1(c2cccc(-c3ccnn3C)c2)C2=CN=NC2NC2=C1C(=O)NC1(CCC1)C2 (stereo partly specified) [US20250313563, Compound 948358]
47 | 100 to 1000 nM | 1000 to 5000 nM | CC[C@]1(c2cccc(-c3ccncc3F)c2)C2=C(CC(C)(C)NC2=O)NC2N=NC(C)=C21 (stereo partly specified) [US20250313563, Compound 947805]
48 | < 100 nM | < 100 nM | CC1(C)CC(=O)C2=C(C1)NC1=C(CN=N1)C21CCN(S(=O)(=O)c2ccc(F)c(F)c2)CC1 [US20250313563, Compound 948119]
49 | < 100 nM | < 100 nM | CC[C@@]1(c2cccc(-c3ccnc4ccc(OC)cc34)c2)C2=CN=NC2NC2=C1C(=O)NC(C)(C)C2 (stereo partly specified) [US20250313563, Compound 948527]
50 | 100 to 1000 nM | 1000 to 5000 nM | CC[C@]1(c2cccc(-c3ccnc(C)c3)c2)C2=CN=NC2NC2=C1C(=O)CC(C)(C)[C@H]2F (stereo partly specified) [US20250313563, Compound 946103]
51 | 1000 to 5000 nM | > 5000 nM | CC[C@]1(c2cccc(-c3ccnc(C)c3)c2)C2=CN=NC2NC2=C1C(=O)[C@@H](F)C(C)(C)C2 (stereo partly specified) [US20250313563, Compound 945486]
52 | < 100 nM | < 100 nM | CC[C@]1(c2cccc(-c3ccncc3C)c2)C2=CN=NC2NC2=C1C(=O)N[C@]1(CCCOC1)C2 (stereo partly specified) [US20250313563, Compound 947911]
53 | > 5000 nM | > 5000 nM | CC[C@]1(c2cccc(-c3ccnc4c3cnn4C)c2)C2=CN=NC2NC2=C1C(=O)NC(C)(C)C2 (stereo partly specified) [US20250313563, Compound 948817]
